From patent US20050209278A1, “Piperidinyl- and piperazinyl-sulfonylmethyl hydroxamic acids and their use as protease inhibitors” (priority 2002, published 2005) come the findings set out here.

What is called Ki is a measure of affinity in units of concentration, obtained from inhibition or displacement.

T1 sequence (P14780 107-707 limits assumed): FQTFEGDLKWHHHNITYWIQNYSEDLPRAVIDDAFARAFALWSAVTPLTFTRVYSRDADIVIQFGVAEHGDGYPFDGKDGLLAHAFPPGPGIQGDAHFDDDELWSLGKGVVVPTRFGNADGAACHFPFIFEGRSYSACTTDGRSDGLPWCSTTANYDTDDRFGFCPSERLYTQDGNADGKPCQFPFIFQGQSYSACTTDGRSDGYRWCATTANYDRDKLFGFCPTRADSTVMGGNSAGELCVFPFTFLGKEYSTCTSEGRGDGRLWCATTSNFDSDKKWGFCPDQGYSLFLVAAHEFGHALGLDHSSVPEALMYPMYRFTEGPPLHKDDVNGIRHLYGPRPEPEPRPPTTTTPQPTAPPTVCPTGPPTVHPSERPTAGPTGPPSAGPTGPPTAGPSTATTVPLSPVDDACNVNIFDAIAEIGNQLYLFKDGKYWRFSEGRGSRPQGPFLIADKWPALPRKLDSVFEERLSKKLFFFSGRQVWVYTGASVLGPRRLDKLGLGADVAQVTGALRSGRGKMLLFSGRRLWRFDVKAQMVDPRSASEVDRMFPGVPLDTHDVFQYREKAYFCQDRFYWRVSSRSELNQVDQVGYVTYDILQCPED

The first experiment has as its target T1, MMP-9 (Homo sapiens, UniProt P14780).
T1 construct: made in house; host or cells: MMP-9-transfected HT1080 cells (spent media)
The experiment is described as follows: In vitro MMP inhibition, Ki determination (fluorogenic substrate II). The class given is biochemical. The following applies: value not in parenthesis. An outline of the steps: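 HT1080-derived MMP-9, activated with APMA, trypsin or MMP-3, incubated 1 hr at room temperature with inhibitor and 4 μM fluorogenic substrate II (at or below Km) in pH 7.5 Tris/NaCl/CaCl2 buffer; ex 330/em 420 nm. Ki from Morrison-equation regression, without substrate correction.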
Regarding `CCCCc1ccc(C2CCN(S(=O)(=O)C3(C(=O)NO)CCN(CCOC)CC3)CC2)s1` [Example 55], the Ki was determined as 0.35 nM. As for `O=C(NO)C1(S(=O)(=O)N2CCN(c3ccc(COCC(F)(F)C(F)F)cc3)CC2)CCOCC1` [Example 71], the Ki is 13 nM. For `O=C(NO)C1(S(=O)(=O)N2CCN(c3ccc(COCC(F)(F)F)cc3)CC2)CCOCC1` [Example 72], the Ki is 2.86 nM. Consider `O=C(NO)C1(S(=O)(=O)N2CCN(c3ccc(OC4CCC4)c(F)c3)CC2)CCOCC1` [Example 73], for which the inhibition constant Ki amounted to 7.97 nM. The same measure, in the same setting: then `O=C(NO)C1(S(=O)(=O)N2CCN(c3ccc(OCc4ccccc4)cn3)CC2)CCOCC1` [Example 74], with 4.8 nM; and `O=C(NO)C1(S(=O)(=O)N2CCN(c3ccc(-c4ccccc4)cc3)CC2)CCOCC1` [Example 76], with 0.5 nM; and `O=C(NO)C1(S(=O)(=O)N2CCN(c3ccc(CCC(F)(F)F)cc3)CC2)CCOCC1` [Example 77], with 0.8 nM.

`CCN1CCC(C(=O)NO)(S(=O)(=O)N2CCN(c3ccc(OCCCC(F)(F)F)cc3)CC2)CC1` [Example 78]: the inhibitory constant (Ki) stood at 22.8 nM. For the molecule `CC(C)COc1ccc(N2CCN(S(=O)(=O)C3(C(=O)NO)CCOCC3)CC2)cc1Cl` [Example 79], the Ki turned out to be 41.5 nM. Same read-out and setting: with `O=C(NO)C1(S(=O)(=O)N2CCN(c3ccc(OCCCC(F)(F)F)cc3F)CC2)CCOCC1` [Example 81] the figure was 29.2 nM. Consider `O=C(NO)C1(S(=O)(=O)N2CCN(c3cccc(C(F)(F)F)c3)CC2)CCOCC1` [Example 82], for which the Ki turned out to be 249 nM.

As for `O=C(NO)C1(S(=O)(=O)N2CCN(c3ccc(OCCCC(F)(F)F)cn3)CC2)CCOCC1` [Example 83], the inhibition constant Ki worked out at 4.21 nM. Still for that read-out and setting: then `CCCCOc1ccc(N2CCN(S(=O)(=O)C3(C(=O)NO)CCN(C(C)(C)C)CC3)CC2)c(F)c1` [Example 84], with 17.9 nM; and `CCCCOc1ccc(N2CCN(S(=O)(=O)C3(C(=O)NO)Cc4ccccc4C3)CC2)nc1` [Example 85], with 1.17 nM; and `COCCN1CCC(C(=O)NO)(S(=O)(=O)N2CCN(c3ccc(OCCCCF)cc3)CC2)CC1` [Example 88], with 2.18 nM. Still for that read-out and setting: with `O=C(NO)C1(S(=O)(=O)N2CCN(c3ccc(OCCCCF)cc3)CC2)CCOCC1` [Example 89] the figure was 2.23 nM; with `CCCCOc1ccc(N2CCN(S(=O)(=O)C3(C(=O)NO)CCOCC3)CC2)c(F)c1` [Example 90], 2.15 nM; with `CCCCc1ccc(N2CCN(S(=O)(=O)C3(C(=O)NO)CCOCC3)CC2)c(F)c1` [Example 91], 0.452 nM. Still for that read-out and setting: then `CCCCOc1ccc(N2CCN(S(=O)(=O)C3(C(=O)NO)CCN(c4nc5ccccc5s4)CC3)CC2)cc1` [Example 93], with 60.1 nM; and `O=C(NO)C1(S(=O)(=O)N2CCN(c3ccc(C(F)(F)F)cn3)CC2)CCOCC1` [Example 94], with 14.3 nM. `CCCCCc1ccc(N2CCN(S(=O)(=O)C3(C(=O)NO)CCN(c4ncccn4)CC3)CC2)nc1` [Example 95]: the inhibition constant (Ki) came out at 0.99 nM. The same measure, in the same setting: with `CCCCc1ccc(N2CCN(S(=O)(=O)C3(C(=O)NO)CCN(c4cccnc4)CC3)CC2)nc1` [Example 96] the figure was 0.21 nM. With `CCCCOc1ccc(N2CCN(S(=O)(=O)C3(C(=O)NO)CCN(C(=O)OCC(C)(C)C)CC3)CC2)cc1` [Example 97], the Ki worked out at 21.9 nM.

Consider `C#CCOC(=O)N1CCC(C(=O)NO)(S(=O)(=O)N2CCN(c3ccc(OCCCC)cc3)CC2)CC1` [Example 98], for which the inhibition constant Ki was 1.24 nM. Same read-out and setting: with `CCCCc1ccc(N2CCN(S(=O)(=O)C3(C(=O)NO)CCN(c4ncccn4)CC3)CC2)nc1` [Example 99] the figure was 0.16 nM; with `CCCCOc1ccc(N2CCN(S(=O)(=O)C3(C(=O)NO)CCOCC3)CC2)nc1` [Example 100], 0.3 nM; with `CCCCOc1ccc(N2CCN(S(=O)(=O)C3(C(=O)NO)CCN(c4ccc(Cl)c(Cl)c4)CC3)CC2)cc1` [Example 250], 73.9 nM.

The same experiment, now with this note: value outside parentheses.
On to `CCCCOc1ccc(N2CCN(S(=O)(=O)C3(C(=O)NO)CCN(c4ccc(Cl)cc4)CC3)CC2)cc1` [Example 251], for which the Ki is 57.4 nM.
